Laboratory results published in article PMC3653568 (Nature, 2012).

How the values were obtained:
D4 Receptor = target: T1, D4 Receptor (Homo sapiens, UniProt P21917); assay: radioligand binding, [3H]N-methylspiperone; details: bound stated
T1 sequence (P21917 1-419): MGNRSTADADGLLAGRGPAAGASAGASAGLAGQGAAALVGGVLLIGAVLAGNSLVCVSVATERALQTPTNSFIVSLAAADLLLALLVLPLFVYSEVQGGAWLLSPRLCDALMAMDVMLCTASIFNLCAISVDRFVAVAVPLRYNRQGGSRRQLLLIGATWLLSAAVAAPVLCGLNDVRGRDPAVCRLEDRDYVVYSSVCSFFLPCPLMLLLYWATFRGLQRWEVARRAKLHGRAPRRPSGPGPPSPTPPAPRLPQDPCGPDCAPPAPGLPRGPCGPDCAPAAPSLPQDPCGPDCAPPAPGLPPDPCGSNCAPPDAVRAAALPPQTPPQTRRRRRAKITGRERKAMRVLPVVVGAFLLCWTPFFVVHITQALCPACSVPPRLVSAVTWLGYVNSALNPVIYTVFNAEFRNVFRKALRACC

D2 Receptor = D2 Receptor (Homo sapiens, UniProt P14416); assay: radioligand binding, [3H]N-methylspiperone; details: @ 10μM (Fig. 1c)
Dopamine receptor D4 = target: T2, Dopamine receptor D4 (Homo sapiens, UniProt P21917); assay type: cell-based; details: Fig. 3A agonist assay
T2 sequence (P21917 1-419): T1 sequence (P21917 1-419)

Dopamine receptor D2 = Dopamine receptor D2 (Homo sapiens, UniProt P14416); assay type: cell-based; details: Fig. 3A agonist assay
Sequence of Dopamine receptor D2 (P14416 whole entry, species assumed): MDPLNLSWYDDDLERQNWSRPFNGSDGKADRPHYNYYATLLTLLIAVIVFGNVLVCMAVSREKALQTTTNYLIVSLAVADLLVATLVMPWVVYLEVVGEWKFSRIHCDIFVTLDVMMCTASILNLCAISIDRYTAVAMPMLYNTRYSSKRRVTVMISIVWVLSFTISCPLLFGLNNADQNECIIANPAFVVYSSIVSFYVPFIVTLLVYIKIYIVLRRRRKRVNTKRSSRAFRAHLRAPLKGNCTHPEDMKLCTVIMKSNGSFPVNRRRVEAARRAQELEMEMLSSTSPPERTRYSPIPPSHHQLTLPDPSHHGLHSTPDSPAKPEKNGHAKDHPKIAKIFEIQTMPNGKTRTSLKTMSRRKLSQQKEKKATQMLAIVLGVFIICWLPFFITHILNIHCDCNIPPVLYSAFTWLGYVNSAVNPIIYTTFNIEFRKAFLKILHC

Sequence of D2 Receptor (P14416 whole entry): as the sequence (P14416 whole entry, species assumed) above

| SMILES | Ki (D4 Receptor) [nM] | radioligand percentage inhibition D2 (D2 Receptor) [%] | D4 functional mode (Dopamine receptor D4) | D2 functional mode (Dopamine receptor D2) |
| --- | --- | --- | --- | --- |
| c1cncc(OC[C@@H]2CN(CCN3CCc4ccccc43)CCO2)c1 [Compound 21s] | < 1000 |  |  |  |
| COc1cc2c(cc1OC)C(=O)C(CC1CCN(Cc3ccccc3)CC1)C2 (stereo not drawn) [Donepezil (Cpd 1), Donepezil, reference compound] |  | 19 | inverse agonist |  |
| COc1cc2c(cc1OC)C(=O)N(CCCCN1CCN(c3ccccc3OC)CC1)C2 [Compound 3] |  | 96 | agonist | inverse agonist |
